Experimental data from patent publication US6329497A, “Sandramycin analogs” (The Scripps Research Institute, priority 1999, dated 2001).
“Also recorded” adds a separate entry of the source.

Tests used:
[1] = biological target: HIV-1 reverse transcriptase (Human immunodeficiency virus type 1 group M subtype B, UniProt P04585); assay: Inhibition of HIV-1 reverse transcriptase; format: biochemical
Protocol: The assay was performed according to an available procedure (Goldman, M. E.; Salituro, G. S.; Bowen, J. A.; Williamson, J. M.; Zink, D. L.; Schleif, W. A.; Emini, E. A. Mol. Pharmacol. 1990, 38, 20) with slight modification. A 45 L solution of reaction buffer containing 55 mM Tris·HCl, pH 8.2, 80 mM potassium chloride, 12 mM MgCl2, 1 mM DTT, 50 M EGTA, 2.5 g/mL rA·dT, 0.5 Ci of [^3 H]TTP, 10 M TTP, 1 mg/mL BSA, and 0.01% Triton X-100 was added to a well in a filter cluster plate (Millipore MAHV N45). The reverse transcription reaction was initiated upon addition of the reverse transcriptase (1 unit; 1 unit=10 pmol of [^3 H]TMP incorporated/60 min at 37° C.). The plate was incubated at 37° C. for 90 min. The plate was then placed on ice and 200 µL of 13% trichloroacetic acid and 10 mM sodium pyrophosphate was added to each well. The plate was chilled for 2 h and the liquid vacuumed out through the filter using a Millipore manifold (Millipore MAVM 09601). The precipitate was washed with 1 M and 10 mM sodium pyrophosphate twice. The filter was punched out and placed in a scintillation vial. 4 mL of cocktail was added. Radioactivity was determined by liquid scintillation counting.
The effects of sandramycin and its analogs on HIV-1 reverse transcriptase were determined by incubating the agents and the rA·dT containing buffer at 25° C. for 30 min prior to addition of the reverse transcriptase. Reactions containing no agents were used as controls, and those lacking the transcriptase were used as blanks.

L1210 cell line = assay: In vitro cytotoxic activity, L1210; format: cell-based
HL-60 = assay: In vitro cytotoxic activity, HL-60; format: cell-based
[2] = tested on: melanomas, carcinomas, and adenocarcinomas; assay: In vitro cytotoxic activity of 4 against tumor cell lines; format: cell-based
leukemia cell lines = details: typical
calf thymus DNA = assay: DNA binding constant determination for 23 (ethidium bromide displacement; sandramycin titration)
Protocol: Calf thymus DNA (1.0×10^-5 M in base-pair) was mixed with ethidium bromide (5.0×10^-6 M) resulting in a 2:1 ratio of base-pair:ethidium in a 10 mM Tris-HCl (pH 7.4), 75 mM NaCl buffer solution (2 mL). The fluorescence was calibrated at 24° C. to 100% F and 0% F with a DNA-ethidium buffer solution and ethidium buffer solution, respectively. The premixed DNA-ethidium solution was titrated with small aliquots of 23 (20 to 40 μL of 3 mM […] in DMSO) and incubated at 24° C. for 30 min prior to each fluorescence measurement. The fluorescence was measured with 545 nm excitation and 595 nm emission with a slit width of 10 nm. The absolute binding constant from three such titrations were determined at 50% ethidium bromide displacement as measured by a drop in fluorescence to 50%. The binding constant of ethidium bromide employed to calculate the absolute binding constant with a competitive or noncompetitive binding model^39 was 4.5×10^5 M^-1 and the results are summarized in Table 4.
A 2 mL of sample containing 400 μL of calf thymus DNA (320 μM in base-pair) with or without the presence of 40 μL of 23 (3.2×10^-3 M in DMSO) in 10 mM Tris-HCl (pH 7.4), 75 mM NaCl buffer solution was titrated with small aliquots of sandramycin (1 μL, 1.0×10^-3 M in DMSO). The quenching of fluorescence was measured 5 min after each addition of sandramycin with 360 nm excitation and 530 nm fluorescence.

five cell lines = assay: In vitro cytotoxic activity of key substructure analogs, five cell lines; format: cell-based
5'-d(GCGCGC)2 = assay: Sandramycin binding to deoxyoligonucleotides, fluorescence quenching, 5'-d(GCGCGC)2
Protocol: (§1) Apparent absolute DNA binding constants for 1-22 and related agents including luzopeptin A were obtained by measurement of the fluorescence quenching upon titration addition of calf thymus DNA or the deoxyoligonucleotides 5'-d(GCXXGC)2 where XX=AT, TA, GC, and CG. For each agent, the characteristic fluorescence excitation and emission spectra were recorded in 10 mM Tris-HCl, 75 mM NaCl (pH 7.4) buffer, FIG. 6. For the DNA binding assays which quantitate the fluorescence quenching, excitation outside the absorbance range of DNA was employed and the most intense fluorescence emission at a longer wavelength monitored. For assay of the DNA-induced fluorescence quenching of the agents, a 2 mL buffer solution of Tris-HCl (pH 7.4) and 75 mM NaCl was employed. For titration, small aliquots of DNA were added to solutions of the agents in Tris-HCl buffer (pH 7.4).
(§2) A pronounced downward curvature in an infinite lattice such as calf thymus DNA is recognized to arise in part from neighbor exclusion where the binding of an agent excludes the subsequent binding at nearby sites. […]
(§3) After 5 min of stirring, an initial fluorescence reading was taken with minimum exposure to the excitation beam. […] The results of the titration were analyzed by Scatchard analysis. […]

5'-d(GCTAGC)2 = assay: Sandramycin binding to deoxyoligonucleotides, fluorescence quenching, 5'-d(GCTAGC)2
Protocol: as §1, §2, §3

5'-d(GCCGGC)2 = assay: Sandramycin binding to deoxyoligonucleotides, fluorescence quenching, 5'-d(GCCGGC)2
Protocol: as §1, §2, §3

[3] = tested on: two single mutant and one double mutant of HIV-1 reverse transcriptase; details: cited from earlier work

In the case of `CC(C)[C@H]1C(=O)OC[C@@H](NC(=O)c2ccc3ccccc3n2)C(=O)N2CCCC[C@H]2C(=O)NCC(=O)N(C)CC(=O)N(C)[C@@H](C(C)C)C(=O)OC[C@@H](NC(=O)c2ccc3ccccc3n2)C(=O)N2CCCC[C@H]2C(=O)NCC(=O)N(C)CC(=O)N1C` [compound 4, (N-(Quinol-inyl-2-carbonyl)-D-Ser-Pip-Gly-Sar-NMe-Val)2 (Serine Hydroxyl) Dilactone], the “HIV-1 reverse transcriptase inhibition, in words” value [1] is reported as “Comparable but slightly less potent inhibition”, the “fold less potent than sandramycin” value [1] is reported as 3 and the “cytotoxic potency, fold less potent than 1” value (L1210 cell line) is reported as 10. For the same compound, the “cytotoxic potency, in words” value (HL-60) was “exceptionally potent; also recorded: unusually potent”, the “rank order of cytotoxic potency” value ([2]; carcinomas and adenocarcinomas) was 4>luzopeptin A>sandramycin (1) and the “rank order of cytotoxic potency” value ([2]; melanomas) was 4=luzopeptin A>sandramycin (1). The “fold more potent than sandramycin (luzopeptin A or sandramycin)” value ([2]; melanomas, carcinomas, adenocarcinomas) was 1-10,000 and the “fold less potent than sandramycin (luzopeptin A or sandramycin)” value (leukemia cell lines) was 4-10.

In the case of “(N-BOC-D-Ser-Pip-Gly-Sar-NMe-Val)2 (Serine Hydroxyl) Dilactone [compound 23]”, the “G° of binding” value (calf thymus DNA) is reported as -6.0 kcal/mol, the “cytotoxic activity, in words” value (five cell lines; both chromophores removed) is reported as “inactive” and the “fold less potent than 1” value (five cell lines; five cell lines) is reported as “approx 10^5”.

For `CC(C)[C@H]1C(=O)OC[C@H](NC(=O)c2nc3ccccc3cc2O)C(=O)N2CCCC[C@@H]2C(=O)NCC(=O)N(C)CC(=O)N(C)[C@H](C(C)C)C(=O)OC[C@@H](NC(=O)c2nc3ccccc3cc2O)C(=O)N2CCCC[C@@H]2C(=O)NCC(=O)N(C)CC(=O)N1C` [compound 1, Sandramycin], the “G° relative to 5'-d(GCATGC)2” value (5'-d(GCGCGC)2) was 0.3 kcal/mol, the “HIV-1 reverse transcriptase inhibition, in words” value [1] was “slightly more effective than luzopeptin A” and the IC50 ([1]; range given for both agents) was 130 to 190 nM. The “G° relative to 5'-d(GCATGC)2” value (5'-d(GCTAGC)2) was 0.6 kcal/mol and the “G° relative to 5'-d(GCATGC)2” value (5'-d(GCCGGC)2) was 0.6 kcal/mol.

In the case of `COc1ccc2nc(C(=O)N[C@@H]3COC(=O)[C@H](C(C)(C)O)N(C)C(=O)CN(C)C(=O)CNC(=O)[C@@H]4[C@@H](OC(=O)[C@@H]5C[C@H]5C)CC=NN4C(=O)[C@H](NC(=O)c4cnc5cc(OC)ccc5n4)COC(=O)[C@H](C(C)(C)O)N(C)C(=O)CN(C)C(=O)CNC(=O)[C@@H]4C(OC(=O)[C@@H]5C[C@H]5C)CC=NN4C3=O)cnc2c1` (some centres unmarked) [quinoxapeptin A], the “relative effectiveness against mutants versus HIV-1 reverse transcriptase” value [3] is listed as 1-3.
